Experimental data taken from patent publication US7622128B2, “Porphyromonas gingivalis 1435/1449 LPS as an immune modulator” (priority 2005, dated 2009).

Tested on: mouse bone marrow cells
Assay: Activation of bone marrow cells from TLR knockout mice (intracellular TNF-α staining, FACS)
Assay type: cell-based
Details: TLR2−/−, TLR4−/− and TLR2/4−/− cells
Description: The ability of this P. gingivalis LPS preparation to activate mouse bone marrow cells obtained from TLR2^−/−, TLR4^−/−, and TLR2/4^−/− knockout mice was examined to determine if endogenous TLR2 and TLR4 were utilized. Activation was determined by intracellular TNF-α staining and fluorescence-activated cell sorter analysis.

Substance: Pam3CSK4
- TLR usage in bone marrow cells of knockout mice: utilized their respective cognate TLR
